Assay results: US20130096067A1, “DROSOPHILA TUMOR STEM CELL MODEL AND USES THEREOF” (priority 2011, published 2013)
“Also recorded” adds a separate entry of the source.

Assays:
[1] = test system: Raf-1^gof intestinal tumors; assay: Luciferase screen of FDA-approved (NCI) drugs in 96-well plates, flies with Raf-1^gof intestinal tumors; type: in vivo, Drosophila; details: for Avg (3 + 6): average of Day 3 and Day 6 fold; for Log2 (fold): log2 of the Day 3 fold difference in luciferase relative to DMSO controls; for Day 3 Fold: luciferase activity relative to DMSO controls, single dose of drug for three days, 96-well plates; for Day 6 Fold: six-day protocol: single dose for three days, then another dose for three more days; for Avg (3 + 6): test concentration or dose not given here; for Log2 (fold): test concentration or dose not given here
[2] = test system: JNK signaling; assay: puc-LacZ reporter for JNK signaling in wild-type guts; type: in vivo, Drosophila; details: EC cells
Procedure: (§1) Flies were treated with DMSO alone as a control. […].
(§2) For example, subjecting the fly intestine to the detergent dextran sulfate sodium (DSS) or to pathogen infection, induces ECs to activate the JNK stress-related pathway and to express IL-6 related cytokines (Unpaireds/Upds) (Jiang et al., 2009; Buchon et al., 2009; Apidianakis et al., 2009). The Upds activate JAK-STAT signaling in the ISCs, driving them to overproliferate. To determine if these same pathways are activated in response to FDA anti-cancer drugs, the puc-lacZ reporter was used to monitor JNK signaling, and a Gal-4 enhancer trap to monitor expression of Upd-3, the Upd cytokine preferentially expressed in the gut in response to injury (Jiang et al., 2009).

[3] = test system: JAK-STAT signaling; assay: upd3-GFP reporter for JAK-STAT signaling in wild-type guts; type: in vivo, Drosophila; details: EC cells
Procedure: as §1, §2

[4] = test system: ISCs/EBs; assay: Drug-induced ISC/EB expansion in animals with loss-of-function JAK allele hop^msv1; type: in vivo, Drosophila; details: loss-of-function JAK allele hop^msv1 vs wild type
Procedure: FIG. 7. FDA anti-cancer drugs that block TSCs can have differential effects on the microenvironment and growth of wild-type ISCs. […] Flies were treated with DMSO alone as a control. […]. […] C) The expansion of ISCs/EBs in response to bortezomib and paclitaxel is less severe in animals with a loss-of-function JAK allele, hop^msv1.
Controls: yw,yv;attP2 (Ni et al., 2008). Gal4 drivers and reporters: esg-Gal4,UAS-GFP,tub-Gal80^ts (Micchelli et al., 2006), UAS-luc2(luciferase at attP2) (Markstein et al., 2008), puc-lacZE69 (Ring et al., 1993), #42685}, upd3-Gal4 (Agaisse et al., 2003). UAS constructs: UAS-Raf-1^gof (Brand et al., 1994), UAS-raptor-RNAi (TRIP stock JF01088), UAS-Dsor-RNAi (TRIP stock JF01697), UAS-Akt-RNAi (TRIP stock HMS00007). UAS-NotchDN (Jacobsen 1998). Mutants: hop^msv1 (Perrimon et al., 1986). Using the above stocks, an esg-Gal4 stock was created with both an inducible GFP reporter and an inducible Luciferase reporter: esg-Gal4,UAS-GFP,tub-Gal80^ts; UAS-luc2. For the chemical screens the following cross was performed to create Raf-1^gof intestinal tumors marked with GFP and luciferase: UAS-Raf-1^gof X esg-Gal4,UAS-GFP,tub-Gal80^ts; UAS-luc2. […]

[5] = test system: Raf-1^gof intestinal tumors; for Fold (luciferase activity, fold difference relative to DMSO controls): test concentration or dose not given here; for Log2 (fold) (luciferase activity, log2 of the fold difference relative to DMSO controls): test concentration or dose not given here

SMILES | Avg (3 + 6) [1] [fold] | Log2 (fold) [1] | Day 3 Fold [1] [fold] | Day 6 Fold [1] [fold] | expression of puc-lacZ reporter (JNK signaling) [2] | expression of upd3-GFP / Upd-3 reporter (JAK-STAT signaling) [3] | expansion of ISCs/EBs in hop^msv1 animals [4] | Fold ([5]; Table 3 summary of hits, Screen ICCB, luciferase relative to DMSO, fed three consecutive days in vials) [fold] | Log2 (fold) (luciferase activity, log2 of the fold difference relative to DMSO controls) ([5]; screen of 480 ICCB compounds in vials, compounds fed to flies with one-day old Raf-1^gof tumors, assessed three days later, esg-Gal4 luciferase) | Fold (luciferase activity, fold difference relative to DMSO controls) ([5]; screen of 480 ICCB compounds in vials, compounds fed to flies with one-day old Raf-1^gof tumors, assessed three days later, esg-Gal4 luciferase, averaged from multiple wells)
CC(=O)O[C@H]1C(=O)[C@@]2(C)[C@H]([C@H](OC(=O)c3ccccc3)[C@]3(O)C[C@H](OC(=O)[C@H](O)[C@@H](NC(=O)c4ccccc4)c4ccccc4)C(C)=C1C3(C)C)[C@]1(OC(C)=O)CO[C@@H]1C[C@@H]2O [Paclitaxel] | 0.695 | −1.808 | 0.285 | 1.104 | inducing expression of puc-lacZ; also recorded: induced expression of both the JNK puc-lacZ reporter and the Upd-3 reporter | inducing expression of puc-lacZ (red, upper panel) and upd3-GFP; also recorded: induced expression of both the JNK puc-lacZ reporter and the Upd-3 reporter | less severe | 0.274 | −1.870 | 0.274
CC(C)C[C@H](NC(=O)[C@H](Cc1ccccc1)NC(=O)c1cnccn1)B(O)O [Bortezomib] | 0.607 | −2.013 | 0.248 | 0.967 | inducing expression of puc-lacZ; also recorded: induced expression of both the JNK puc-lacZ reporter and the Upd-3 reporter | inducing expression of puc-lacZ (red, upper panel) and upd3-GFP; also recorded: induced expression of both the JNK puc-lacZ reporter and the Upd-3 reporter | less severe |  |  | 
